The values below come from US12233161B1, “Lipids and lipid nanoparticle formulations” (LONGUIDE BIOPHARMA CORPORATION, priority 2024, dated 2025).

The test has as its system mice. The test can be described thus: In vivo delivery of FLuc-mRNA lipid nanoparticles in mice, in vivo imaging (IVIS). Particulars: for IVIS / % of organ targeting: Fluc-mRNA LNP. The protocol:
After the preparation was completed, the preparation was injected intramuscularly (mice rectus femoris muscle of the thigh), intravenously (mice tail vein), or intraperitoneal injection or subcutaneous injection (subcutaneous on the back), with approximately 75 μL per mouse, for a total of 3 mice. After a certain time of injection, in vivo imaging (PerkinElmer, IVIS Lumina III) was performed. 10-15 minutes before imaging, 200 μL of 15 mg/mL D-Luciferin working solution was injected intraperitoneally, and the imaging analysis was performed using an in vivo imager.

The mark [1] stands for this setting: route IM, organ not given, formulation, molar ratio and N/P as in the table.
Where [2] appears, read: route IV, organ: body, formulation, molar ratio and N/P as in the table.
Setting [3] is: route IV, organ: liver, formulation, molar ratio and N/P as in the table.
Where [4] appears, read: route IV, organ: lung, formulation, molar ratio and N/P as in the table.
[5] abbreviates: route IV, organ: spleen, formulation, molar ratio and N/P as in the table.
[6] abbreviates: route IV, organ not given, formulation, molar ratio and N/P as in the table.
Where [7] appears, read: route IH, organ: liver, DSPE-PEG5000:DSPC:Chol:compound 1.40:11.15:38.95:48.50, N/P 30.
[8] abbreviates: route IH, organ: lung, DSPE-PEG5000:DSPC:Chol:compound 1.40:11.15:38.95:48.50, N/P 30.
Where [9] appears, read: route IH, organ: spleen, DSPE-PEG5000:DSPC:Chol:compound 1.40:11.15:38.95:48.50, N/P 30.
[10] abbreviates: route IM, organ: liver, formulation, molar ratio and N/P as in the table.
Where [11] appears, read: route IM, organ: lung, formulation, molar ratio and N/P as in the table.
Setting [12] is: route IM, organ: spleen, formulation, molar ratio and N/P as in the table.

Regarding `CCCCCCCCN(C)C(=O)C(O)CN(CCCN(C)CCCN(CC(O)C(=O)N(C)CCCCCCCC)CC(O)C(=O)N(C)CCCCCCCC)CC(O)C(=O)N(C)CCCCCCCC` (centres unmarked) [Compound L0350], the IVIS amounted to 1.75E+05 under setting [1]; 8.43E+06 under setting [2]; 2.94E+05 under setting [3]; 2.99E+07 under setting [4]; 8.57E+05 under setting [5]. Besides, the “% of organ targeting” value under setting [3] is listed as 0.95%, the “% of organ targeting” value under setting [4] came out at 96.29% and the “% of organ targeting” value under setting [5] was found to be 2.76%.
For the compound `CCCCCCC(CCCCCC)C(=O)OCCCCNC(=O)C(O)CN(CCCN(CC(O)C(=O)NCCCCOC(=O)C(CCCCCC)CCCCCC)CC(O)C(=O)NCCCCOC(=O)C(CCCCCC)CCCCCC)CCCN(CC(O)C(=O)NCCCCOC(=O)C(CCCCCC)CCCCCC)CC(O)C(=O)NCCCCOC(=O)C(CCCCCC)CCCCCC` (centres unmarked) [Compound L0369], the IVIS is, setting by setting: under setting [1], 6.07E+07; under setting [2], 1.22E+10; under setting [3], 4.47E+09; under setting [4], 3.40E+07; under setting [5], 3.07E+07. Moreover, the “% of organ targeting” value was determined as 98.57% under setting [3], 0.75% under setting [4] and 0.68% under setting [5].
`CCCCCCCCC(CCCCCC)C(=O)NCCOC(=O)C(O)CN(CCCN(CC(O)C(=O)OCCNC(=O)C(CCCCCC)CCCCCCCC)CC(O)C(=O)OCCNC(=O)C(CCCCCC)CCCCCCCC)CCCN(CC(O)C(=O)OCCNC(=O)C(CCCCCC)CCCCCCCC)CC(O)C(=O)OCCNC(=O)C(CCCCCC)CCCCCCCC` (centres unmarked) [Compound L0375]: the IVIS is, setting by setting: under setting [1], 1.41E+05; under setting [6], 3.72E+05.
Take `CCCCCCCCN(C)C(=O)C(O)CN(CCCN(CC(O)C(=O)N(C)CCCCCCCC)CC(O)C(=O)N(C)CCCCCCCC)CCCN(CC(O)C(=O)N(C)CCCCCCCC)CC(O)C(=O)N(C)CCCCCCCC` (centres unmarked) [Compound L0354]: the IVIS runs as follows: under setting [1], 6.90E+06; under setting [2], 1.35E+08; under setting [3], 3.14E+07; under setting [4], 9.31E+05; under setting [5], 3.86E+07. Further, the “% of organ targeting” value under setting [3] turned out to be 44.24%, the “% of organ targeting” value under setting [4] was 1.31% and the “% of organ targeting” value under setting [5] stood at 54.45%.
In the case of `CCCCCCCCCCOC(=O)CCCNC(=O)C(O)CN(CCN(C)CCN(CC(O)C(=O)NCCCC(=O)OCCCCCCCCCC)CC(O)C(=O)NCCCC(=O)OCCCCCCCCCC)CC(O)C(=O)NCCCC(=O)OCCCCCCCCCC` (centres unmarked) [Compound L0386], the IVIS is listed as 1.91E+05 under setting [1]; 6.49E+07 under setting [2]; 2.54E+06 under setting [3]; 1.86E+08 under setting [4]; 4.18E+06 under setting [5]. In addition, the “% of organ targeting” value is, setting by setting: under setting [3], 1.32%; under setting [4], 96.51%; under setting [5], 2.17%. The “organ targeting specificity (spleen or lung), in words” value (Table 3, Fluc-mRNA, various formulations) is recorded as “more selective towards the lung”.
In the case of `CCCCCCCCCCCCCCN(C)C(=O)C(O)CN(CCCN(CC(O)C(=O)N(C)CCCCCCCCCCCCCC)CC(O)C(=O)N(C)CCCCCCCCCCCCCC)CCCN(CC(O)C(=O)N(C)CCCCCCCCCCCCCC)CC(O)C(=O)N(C)CCCCCCCCCCCCCC` (centres unmarked) [Compound L0357], the IVIS was 3.97E+06 under setting [1]; 2.87E+07 under setting [2]; 6.55E+06 under setting [3]; 2.06E+05 under setting [4]; 5.03E+06 under setting [5]. Besides, the “% of organ targeting” value under setting [3] worked out at 55.56%, the “% of organ targeting” value under setting [4] is listed as 1.75% and the “% of organ targeting” value under setting [5] was determined as 42.69%.
With `CCCCCCCCN(C)C(=O)C(O)CN(CCN(C)CCN(CC(O)C(=O)N(C)CCCCCCCC)CC(O)C(=O)N(C)CCCCCCCC)CC(O)C(=O)N(C)CCCCCCCC` (centres unmarked) [Compound L0352], the IVIS under setting [1] turned out to be 4.47E+05; the IVIS under setting [2] came to 1.95E+06; the IVIS under setting [3] was 4.07E+05; the IVIS under setting [4] stood at 2.38E+05; the IVIS under setting [5] is recorded as 2.02E+06. Also, the “% of organ targeting” value is, setting by setting: under setting [3], 15.27%; under setting [4], 8.93%; under setting [5], 75.80%.
For `CCCCCCC(CCCCCC)C(=O)OCCCCCCNC(=O)C(O)CN(CCN(C)CCN(CC(O)C(=O)NCCCCCCOC(=O)C(CCCCCC)CCCCCC)CC(O)C(=O)NCCCCCCOC(=O)C(CCCCCC)CCCCCC)CC(O)C(=O)NCCCCCCOC(=O)C(CCCCCC)CCCCCC` (centres unmarked) [Compound L0359], the IVIS was 2.25E+07 under setting [1]; 2.65E+08 under setting [2]; 5.06E+07 under setting [3]; 9.61E+06 under setting [4]; 9.08E+07 under setting [5]. The “% of organ targeting” value runs as follows: under setting [3], 33.50%; under setting [4], 6.37%; under setting [5], 60.13%.
As for `CCCCCCCCCCCCNC(=O)C(CN(CCCN(C)CCCN(CC(OC(C)=O)C(=O)NCCCCCCCCCCCC)CC(OC(C)=O)C(=O)NCCCCCCCCCCCC)CC(OC(C)=O)C(=O)NCCCCCCCCCCCC)OC(C)=O` (centres unmarked) [Compound L0388], the IVIS under setting [1] was determined as 1.49E+07; the IVIS under setting [2] is on record as 1.49E+08; the IVIS under setting [3] was 2.37E+07; the IVIS under setting [4] was determined as 1.74E+06; the IVIS under setting [5] was determined as 8.08E+07. Besides, the “% of organ targeting” value stood at 22.33% under setting [3], 1.64% under setting [4] and 76.03% under setting [5].
As to `CCCCCCCCCCCCNC(=O)C(O)CN(CCCN(C)CCN(C)CCCN(CC(O)C(=O)NCCCCCCCCCCCC)CC(O)C(=O)NCCCCCCCCCCCC)CC(O)C(=O)NCCCCCCCCCCCC` (centres unmarked) [Compound L0365], the IVIS under setting [1] is 1.24E+06.
Still for that read-out and setting: to `CCCCCCCCC(CCCCCC)C(=O)NCCOC(=O)C(O)CN(CCN(C)CCN(CC(O)C(=O)OCCNC(=O)C(CCCCCC)CCCCCCCC)CC(O)C(=O)OCCNC(=O)C(CCCCCC)CCCCCCCC)CC(O)C(=O)OCCNC(=O)C(CCCCCC)CCCCCCCC` (centres unmarked) [Compound L0374] belongs 6.46E+07.
In the case of `CCCCCCC(CCCCCC)C(=O)NCCOC(=O)C(O)CN(CCN(C)CCN(CC(O)C(=O)OCCNC(=O)C(CCCCCC)CCCCCC)CC(O)C(=O)OCCNC(=O)C(CCCCCC)CCCCCC)CC(O)C(=O)OCCNC(=O)C(CCCCCC)CCCCCC` (centres unmarked) [Compound L0362], the IVIS (route IH, organ: body, DSPE-PEG5000:DSPC:Chol:compound 1.40:11.15:38.95:48.50, N/P 30) worked out at 1.38E+08; the IVIS under setting [7] came out at 1.80E+07; the IVIS under setting [8] was 3.28E+05; the IVIS under setting [9] was 9.50E+06; the IVIS under setting [10] is reported as 2.62E+07; the IVIS under setting [11] was 4.55E+05. For the same compound, the IVIS reads like this: (route IM, organ: muscle, formulation, molar ratio and N/P as in the table) 3.43E+08; under setting [12], 2.09E+07. In addition, the “% of organ targeting” value runs as follows: under setting [7], 62.89%; under setting [8], 1.15%; under setting [9], 33.19%; under setting [10], 44.30%; under setting [11], 0.77%; under setting [12], 35.43%.
As for `CCCCCCC(CCCCCC)C(=O)NCCOC(=O)C(O)CN(CCCN(CC(O)C(=O)OCCNC(=O)C(CCCCCC)CCCCCC)CC(O)C(=O)OCCNC(=O)C(CCCCCC)CCCCCC)CCCN(CC(O)C(=O)OCCNC(=O)C(CCCCCC)CCCCCC)CC(O)C(=O)OCCNC(=O)C(CCCCCC)CCCCCC` (centres unmarked) [Compound L0363], the IVIS is given as 2.08E+07 under setting [1]; 6.16E+09 under setting [2]; 6.56E+08 under setting [3]; 4.56E+06 under setting [4]; 9.96E+06 under setting [5].
As for `CCCCCCCCC(CCCCCC)C(=O)OCCCCCCNC(=O)C(O)CN(CCCN(C)CCCN(CC(O)C(=O)NCCCCCCOC(=O)C(CCCCCC)CCCCCCCC)CC(O)C(=O)NCCCCCCOC(=O)C(CCCCCC)CCCCCCCC)CC(O)C(=O)NCCCCCCOC(=O)C(CCCCCC)CCCCCCCC` (centres unmarked) [Compound L0370], the IVIS is, setting by setting: under setting [1], 1.68E+07; under setting [2], 1.43E+07; under setting [3], 8.65E+05; under setting [4], 3.34E+06; under setting [5], 1.44E+07. For the same compound, the “% of organ targeting” value is 4.65% under setting [3], 17.97% under setting [4] and 77.39% under setting [5].
Turning to `CCCCCCCCN(C)C(=O)C(O)CN(C)CCN(C)CCN(C)CC(O)C(=O)N(C)CCCCCCCC` (centres unmarked) [Compound L0351], the IVIS under setting [1] is on record as 1.19E+06 and the IVIS under setting [6] came out at 1.55E+06.
